Results as given in US12533394B2, “Compositions and methods for treating metabolic disorders” (GlycoMantra Inc., priority 2023, dated 2026).

Key:
Gal3 [1] = biological target: T1, Gal3 (Homo sapiens, UniProt P17931); conditions: Table 1, comparison galectin antagonists; cited from earlier work
Gal3 [2] = biological target: T1, Gal3; test: Solid-phase assay, blocking Gal3 binding (inhibition curves, FIG. 2)
Description: For the purposes of this disclosure, an “inhibition curve” is a graphical representation used in pharmacology and biochemistry to show how an inhibitor affects the activity of an enzyme, a biological process, or the like. Typically, an inhibition curve plots the concentration of an inhibitor on the x-axis and the corresponding reduction in an enzyme activity (or another measurable response) on the y-axis. An inhibition curve may help visualize the relationship between inhibitor concentration and its effectiveness. As a nonlimiting example, an inhibition curve may be used to determine a half-maximal inhibitory concentration or IC50 value. For the purposes of this disclosure, half-maximal inhibitory concentration or IC50 is the concentration of an inhibitor needed to reduce the activity of a receptor or an enzyme by 50%. A small IC50 value typically indicates a stronger binding affinity between an inhibitor and its target, and vice versa. IC50 is a commonly used indication regarding a drug's efficacy and potency and is often used in pharmacological research. For the purposes of this disclosure, drug potency is the amount of a drug needed to produce a given effect. […] It is often measured using the EC50, i.e., the concentration at which 50% of the maximum effect is observed. […]

T1 sequence (P17931 whole entry, species assumed): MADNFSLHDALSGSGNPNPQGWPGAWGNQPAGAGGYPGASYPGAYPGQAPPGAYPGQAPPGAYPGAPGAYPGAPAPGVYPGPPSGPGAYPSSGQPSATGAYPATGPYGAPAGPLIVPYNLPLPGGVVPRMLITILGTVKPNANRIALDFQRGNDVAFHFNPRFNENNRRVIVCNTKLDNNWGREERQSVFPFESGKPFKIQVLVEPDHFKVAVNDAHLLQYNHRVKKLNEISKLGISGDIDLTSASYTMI

OC[C@H]1O[C@@H](S[C@@H]2O[C@H](CO)[C@H](O)[C@H](n3cc(-c4cccc(F)c4)nn3)[C@H]2O)[C@H](O)[C@@H](n2cc(-c3cccc(F)c3)nn2)[C@H]1O [TD139]
Specificity to Gal3 (Gal3 [1]): No

CC(=O)N[C@H]1C(O)O[C@H](CO)[C@H](O)[C@@H]1O[C@@H]1O[C@H](CO)[C@H](O)[C@H](O)[C@H]1O (some centres unmarked) [synthetic TFD, Galβ1-3GalNAc]
IC50 (Gal3 [2]): 200 µM
